Source: patent US10336762B2 (priority 2017, dated 2019)

Columns and labels:
TNFα = test: cells; format: cell-based, human; details: Homo sapiens, Monocyte, LPS-stimulated human monocytes, TNFα content; read-out: EC50 TNF
IRAK4 enzyme = IRAK4 enzyme (Homo sapiens (Human), UniProt Q9NWZ3); test: biochemical; format: biochemical; details: IRAK4 enzyme, 500 μM ATP
Chain of IRAK4 enzyme (Q9NWZ3 whole entry): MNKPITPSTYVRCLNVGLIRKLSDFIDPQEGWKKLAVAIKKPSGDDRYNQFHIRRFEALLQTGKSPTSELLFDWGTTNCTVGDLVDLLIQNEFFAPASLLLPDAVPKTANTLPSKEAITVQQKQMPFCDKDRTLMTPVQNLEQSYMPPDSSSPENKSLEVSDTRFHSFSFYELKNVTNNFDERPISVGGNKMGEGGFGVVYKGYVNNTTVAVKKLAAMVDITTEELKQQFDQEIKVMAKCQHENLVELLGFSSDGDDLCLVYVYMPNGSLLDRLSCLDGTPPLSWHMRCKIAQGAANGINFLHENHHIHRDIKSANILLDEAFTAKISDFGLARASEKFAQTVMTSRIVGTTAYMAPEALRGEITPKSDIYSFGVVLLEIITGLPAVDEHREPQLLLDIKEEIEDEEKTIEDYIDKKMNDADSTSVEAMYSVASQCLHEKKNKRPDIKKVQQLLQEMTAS

Structure (SMILES)	EC50 (TNFα)	IC50 (IRAK4 enzyme; TR-FRET)	IC50 (IRAK4 enzyme; TR-FRET (HTRF))
COC1CN(C(=O)C23CCC(Nc4cc(-c5ccc6cc(C#N)cnn56)ncc4C(=O)NC[C@@H](F)C(C)(C)O)(CC2)CC3)C1 [Example 396, (R)-6-(3-cyanopyrrolo[1,2-b]pyridazin-7-yl)-N-(2-fluoro-3-hydroxy-3-methylbutyl)-4-((4-(3-methoxyazetidine-1-carbonyl)bicyclo[2.2.2]octan-1-yl)amino) nicotinamide]	24 nM	1 nM	–
COCCNC(=O)C12CCC(Nc3cc(-c4ccc5cc(C#N)cnn45)ncc3C(=O)NC[C@@H](F)C(C)(C)O)(CC1)CC2 [Example 397, (R)-6-(3-cyanopyrrolo[1,2-b]pyridazin-7-yl)-N-(2-fluoro-3-hydroxy-3-methylbutyl)-4-((4-((2-methoxyethyl)carbamoyl)bicyclo[2.2.2]octan-1-yl)amino)nicotinamide]	30 nM	–	1 nM
CC(C)(O)[C@H](F)CNC(=O)c1cnc(-c2ccc3cc(C#N)cnn23)cc1NC12CCC(C(N)=O)(CC1)CC2 [Example 398, (R)-4-((4-carbamoylbicyclo[2.2.2]octan-1-yl)amino)-6-(3-cyanopyrrolo[1,2-b]pyridazin-7-yl)-N-(2-fluoro-3-hydroxy-3-methyl-butyl)nicotinamide]	17 nM	–	< 1 nM
CC(C)(O)[C@H](F)CNC(=O)c1cnc(-c2ccc3cc(C#N)cnn23)cc1NC12CCC(N3CCOC3=O)(CC1)CC2 [Example 399, 6-(3-cyanopyrrolo[1,2-b]pyridazin-7-yl)-N-((R)-2-fluoro-3-hydroxy-3-methylbutyl)-4-((4-(2-oxooxazolidin-3-yl)bicyclo[2.2.2]octan-1-yl)amino)nicotinamide]	8 nM	–	< 1 nM
CC(C)(O)[C@H](F)CNC(=O)c1cnc(-c2ccc3cc(C#N)cnn23)cc1NC12CCC(C(=O)N3CC(F)C3)(CC1)CC2 [Example 400, (R)-6-(3-cyanopyrrolo[1,2-b]pyridazin-7-yl)-N-(2-fluoro-3-hydroxy-3-methylbutyl)-4-((4-(3-fluoroazetidine-1-carbonyl)bicyclo[2.2.2]octan-1-yl)amino) nicotinamide]	21 nM	–	1 nM
CC(C)(O)[C@H](F)CNC(=O)c1cnc(-c2ccc3cc(C#N)cnn23)cc1NC12CCC(C(=O)N3CCOCC3)(CC1)CC2 [Example 401, (R)-6-(3-cyanopyrrolo[1,2-b]pyridazin-7-yl)-N-(2-fluoro-3-hydroxy-3-methylbutyl)-4-((4-(morpholine-4-carbonyl)bicyclo[2.2.2]octan-1-yl)amino)nicotinamide]	65 nM	–	2 nM
N#Cc1cnn2c(-c3cc(NC45CCC(O)(CC4)CC5)c(C(=O)NC45CCC(O)(CC4)CC5)cn3)ccc2c1 [Example 402, 6-(3-cyanopyrrolo[1,2-b]pyridazin-7-yl)-N-(4-hydroxybicyclo[2.2.2]octan-1-yl)-4-((4-hydroxy-bicyclo[2.2.2]octan-1-yl)amino)nicotinamide]	77 nM	–	2 nM
CC(C)(O)[C@H](F)CNC(=O)c1cnc(-c2ccc3cc(C#N)cnn23)cc1NC12CCC(O)(CC1)C2 [Example 403, (R)-6-(3-cyanopyrrolo[1,2-b]pyridazin-7-yl)-N-(2-fluoro-3-hydroxy-3-methylbutyl)-4-((4-hydroxybicyclo[2.2.1]heptan-1-yl)amino) nicotinamide]	14 nM	–	< 1 nM
[2H]C([2H])([2H])N(C(=O)C12CCC(Nc3cc(-c4ccc5cc(C#N)cnn45)ncc3C(=O)NC[C@@H](F)C(C)(C)O)(CC1)CC2)C([2H])([2H])[2H] [Example 404, (R)-4-((4-(bis(methyl-d3)carbamoyl)bicyclo[2.2.2]octan-1-yl)amino)-6-(3-cyanopyrrolo[1,2-b]pyridazin-7-yl)-N-(2-fluoro-3-hydroxy-3-methylbutyl)nicotinamide]	11 nM	–	1 nM
CC(C)(O)[C@H](F)CNC(=O)c1cnc(-c2ccc3cc(C#N)cnn23)cc1NC12CCC(N3CCC3=O)(CC1)CC2 [Example 405, 6-(3-cyanopyrrolo[1,2-b]pyridazin-7-yl)-N-((R)-2-fluoro-3-hydroxy-3-methylbutyl)-4-((4-(2-oxoazetidin-1-yl)bicyclo[2.2.2]octan-1-yl)amino)nicotinamide]	12 nM	–	1 nM
CC(C)(O)[C@H](F)CNC(=O)c1cnc(-c2ccc3cc(C#N)cnn23)cc1NC12CCC(C(=O)NC3CC3)(CC1)CC2 [Example 406, (R)-6-(3-cyanopyrrolo[1,2-b]pyridazin-7-yl)-4-((4-(cyclopropylcarbamoyl)bicyclo[2.2.2]octan-1-yl)amino)-N-(2-fluoro-3-hydroxy-3-methylbutyl) nicotinamide]	33 nM	–	1 nM
CCNC(=O)C12CCC(Nc3cc(-c4ccc5cc(C#N)cnn45)ncc3C(=O)NC[C@@H](F)C(C)(C)O)(CC1)CC2 [Example 407, (R)-6-(3-cyanopyrrolo[1,2-b]pyridazin-7-yl)-4-((4-(ethyl-carbamoyl)bicyclo[2.2.2]octan-1-yl)amino)-N-(2-fluoro-3-hydroxy-3-methylbutyl)nicotinamide]	20 nM	–	2 nM
CC(C)(O)[C@H](F)CNC(=O)c1cnc(-c2ccc3cc(C#N)cnn23)cc1NC12CCC(C(=O)N3CCC3)(CC1)CC2 [Example 408, (R)-4-((4-(azetidine-1-carbonyl)bicyclo[2.2.2]octan-1-yl)amino)-6-(3-cyanopyrrolo[1,2-b]pyridazin-7-yl)-N-(2-fluoro-3-hydroxy-3-methylbutyl)nicotinamide]	31 nM	–	1 nM
CC(C)(O)[C@H](F)CNC(=O)c1cnc(-c2ccc3cc(C#N)cnn23)cc1NC12CCC(C(=O)N3CC(F)(F)C3)(CC1)CC2 [Example 409, (R)-6-(3-cyanopyrrolo[1,2-b]pyridazin-7-yl)-4-((4-(3,3-difluoroazetidine-1-carbonyl)bicyclo[2.2.2]octan-1-yl)amino)-N-(2-fluoro-3-hydroxy-3-methylbutyl)nicotinamide]	17 nM	–	1 nM
CC(C)(O)[C@H](F)CNC(=O)c1cnc(-c2ccc3cc(C#N)cnn23)cc1NC12CCC(C(=O)NC34CC(C3)C4)(CC1)CC2 [Example 410, (R)-4-((4-(bicyclo[1.1.1]pentan-1-ylcarbamoyl)bicyclo[2.2.2]octan-1-yl)amino)-6-(3-cyano-pyrrolo[1,2-b]pyridazin-7-yl)-N-(2-fluoro-3-hydroxy-3-methylbutyl) nicotinamide]	50 nM	–	2 nM
CN(C)C(=O)OC12CCC(Nc3cc(-c4ccc5cc(C#N)cnn45)ncc3C(=O)NC[C@@H](F)C(C)(C)O)(CC1)CC2 [Example 411, (R)-4-((2-(3-cyano-pyrrolo[1,2-b]pyridazin-7-yl)-5-((2-fluoro-3-hydroxy-3-methylbutyl)carbamoyl)pyridin-4-yl)amino)bicyclo[2.2.2] octan-1-yl dimethylcarbamate]	62 nM	–	2 nM
CNC(=O)OC12CCC(Nc3cc(-c4ccc5cc(C#N)cnn45)ncc3C(=O)NC[C@@H](F)C(C)(C)O)(CC1)CC2 [Example 412, (R)-4-((2-(3-cyanopyrrolo[1,2-b]pyridazin-7-yl)-5-((2-fluoro-3-hydroxy-3-methylbutyl)carbamoyl)pyridin-4-yl)amino)bicyclo[2.2.2]octan-1-yl methylcarbamate]	44 nM	–	1 nM
CC(C)(O)[C@H](F)CNC(=O)c1cnc(-c2ccc3cc(C#N)cnn23)cc1Nc1ccc(C#N)cn1 [Example 413, (R)-4-((5-cyanopyridin-2-yl)amino)-6-(3-cyano-pyrrolo[1,2-b]pyridazin-7-yl)-N-(2-fluoro-3-hydroxy-3-methylbutyl) nicotinamide]	98 nM	–	< 1 nM
COC12CCC(Nc3cc(-c4ccc5cc(C#N)cnn45)ncc3C(=O)NC[C@@H](F)C(C)(C)O)(CC1)CC2 [Example 414, 6-(3-cyanopyrrolo[1,2-b]pyridazin-7-yl)-N-((R)-2-fluoro-3-hydroxy-3-methylbutyl)-4-((4-methoxybicyclo[2.2.2]octan-1-yl)amino)nicotinamide]	178 nM	–	12 nM
CN(C)C(=O)C12CCC(Nc3cc(-c4ccc5cc(C#N)cnn45)ncc3C(=O)NC[C@@H](F)C(C)(C)O)(CC1)CC2 [Example 415, (R)-6-(3-cyanopyrrolo[1,2-b]pyridazin-7-yl)-4-((4-(dimethylcarbamoyl)bicyclo[2.2.2]octan-1-yl)amino)-N-(2-fluoro-3-hydroxy-3-methyl-butyl)nicotinamide]	14 nM	–	1 nM
CNC(=O)C12CCC(Nc3cc(-c4ccc5cc(C#N)cnn45)ncc3C(=O)NC[C@@H](F)C(C)(C)O)(CC1)CC2 [Example 416, 6-(3-cyanopyrrolo[1,2-b]pyridazin-7-yl)-N-((R)-2-fluoro-3-hydroxy-3-methylbutyl)-4-((4-(methylcarbamoyl)bicyclo[2.2.2]octan-1-yl)amino)nicotinamide]	16 nM	–	1 nM
CC(=O)OC12CCC(Nc3cc(-c4ccc5cc(C#N)cnn45)ncc3C(=O)NC[C@@H](F)C(C)(C)OC(C)=O)(CC1)CC2 [Example 417, 4-((5-(((R)-3-acetoxy-2-fluoro-3-methylbutyl)carbamoyl)-2-(3-cyanopyrrolo[1,2-b]pyridazin-7-yl)pyridin-4-yl)amino)bicyclo[2.2.2]octan-1-yl acetate]	151 nM	–	5 nM
CC(=O)OC12CCC(Nc3cc(-c4ccc5cc(C#N)cnn45)ncc3C(=O)NC[C@@H](F)C(C)(C)O)(CC1)CC2 [Example 418, 4-((2-(3-cyanopyrrolo[1,2-b]pyridazin-7-yl)-5-(((R)-2-fluoro-3-hydroxy-3-methylbutyl)carbamoyl)pyridin-4-yl)amino)bicyclo[2.2.2]octan-1-yl acetate]	36 nM	–	1 nM
CC(C)(O)[C@H](F)CNC(=O)c1cnc(-c2ccc3cc(C#N)cnn23)cc1NC1C2CC3CC1CC(O)(C3)C2 (stereo partly drawn) [Example 419, 6-(3-cyanopyrrolo[1,2-b]pyridazin-7-yl)-N-((R)-2-fluoro-3-hydroxy-3-methylbutyl)-4-((5-hydroxyadamantan-2-yl)amino)nicotinamide]	127 nM	–	3 nM
